Measurements: PMC4890880 (ACS infectious diseases, 2016)
Like-named read-outs stand apart in the source and are kept apart here.

How the values were obtained:
[1] = tested on: Plasmodium berghei (Pb-Luc) exoerythrocytic-stage parasites; details: for IC50: read-out: PbLuc_IC50, Broad compounds; for normalized signal at concentration 10 / normalized signal at concentration 0.000508053 / normalized signal at concentration 0.00152416 / normalized signal at concentration 0.00457247 / normalized signal at concentration 0.0137174 / normalized signal at concentration 0.0411523 / normalized signal at concentration 0.123457 / normalized signal at concentration 0.37037 / normalized signal at concentration 1.11111 / normalized signal at concentration 3.33333: fraction of control
HepG2-A16-CD81EGFP cells = details: for IC50: read-out: Tox_IC50, HepG2 cytotoxicity; for HepG2 Tox% @ 50 uM rep1 / HepG2 Tox% @ 50 uM rep2: human
[2] = tested on: Plasmodium berghei (Pb-Luc) exoerythrocytic-stage parasites; assay: microbe, parasite or virus in culture
[3] = sheet 2nd round, maximal inhibition in dose response
[4] = read-out: Inhibition% @ 50 uM rep1
[5] = read-out: Inhibition% @ 50 uM rep2

## COc1ccc2c3c([nH]c2c1)[C@H](CO)N(Cc1ccccc1)CC31CN(C(=O)c2ccccn2)C1 [BRD-K93348054-001-01-9]
[1]; concentration 0.000508053, first series
  normalised signal at concentration 0.000508053 (first series): 1.077
[1]; concentration 0.000508053, second series
  normalised signal at concentration 0.000508053 (second series): 1.157
[1]; concentration 0.00152416, first series
  normalised signal at concentration 0.00152416 (first series): 0.9906
[1]; concentration 0.00152416, second series
  normalised signal at concentration 0.00152416 (second series): 0.8767
[1]; concentration 0.00457247, first series
  normalised signal at concentration 0.00457247 (first series): 0.8635
[1]; concentration 0.00457247, second series
  normalised signal at concentration 0.00457247 (second series): 1.079
[1]; concentration 0.0137174, first series
  normalised signal at concentration 0.0137174 (first series): 1.042
[1]; concentration 0.0137174, second series
  normalised signal at concentration 0.0137174 (second series): 0.9363
[1]; concentration 0.0411523, first series
  normalised signal at concentration 0.0411523 (first series): 0.9232
[1]; concentration 0.0411523, second series
  normalised signal at concentration 0.0411523 (second series): 0.9999
[1]; concentration 0.123457, first series
  normalised signal at concentration 0.123457 (first series): 0.9966
[1]; concentration 0.123457, second series
  normalised signal at concentration 0.123457 (second series): 1.053
[1]; concentration 0.37037, first series
  normalised signal at concentration 0.37037 (first series): 0.8299
[1]; concentration 0.37037, second series
  normalised signal at concentration 0.37037 (second series): 0.8736
[1]; concentration 1.11111, first series
  normalised signal at concentration 1.11111 (first series): 0.8048
[1]; concentration 1.11111, second series
  normalised signal at concentration 1.11111 (second series): 0.7
[1]; concentration 3.33333, first series
  normalised signal at concentration 3.33333 (first series): 0.6468
[1]; concentration 3.33333, second series
  normalised signal at concentration 3.33333 (second series): 0.6466
[1]; concentration 10, first series of dose columns
  normalised signal at concentration 10 (first series): 0.6758
[1]; concentration 10, second series of dose columns
  normalised signal at concentration 10 (second series): 0.621
[1]; sheet "2nd round", dose response top concentration 10
  IC50: > 10 µM
[1]; sheet "2nd round"
  PbLuc_max_inhibition (%): 38%
HepG2-A16-CD81EGFP cells; sheet "2nd round"
  IC50: > 10 µM
  Tox_max_inhibition (%): 18%

## C[C@@H]1CN([C@@H](C)CO)C(=O)c2cccc(NC(=O)c3ccc(-c4nccs4)cc3)c2O[C@H]1CN(C)C(=O)Nc1ccc(C(F)(F)F)cc1 [BRD-K97485207-001-01-1]
[1]; first series of dose-response columns
  normalized signal at concentration 10: 0.53
[1]; first series
  normalized signal at concentration 0.000508053: 0.80
  normalized signal at concentration 0.00152416: 0.94
  normalized signal at concentration 0.00457247: 0.89
  normalized signal at concentration 0.0137174: 0.64
  normalized signal at concentration 0.0411523: 0.84
  normalized signal at concentration 0.123457: 1.04
  normalized signal at concentration 0.37037: 0.85
  normalized signal at concentration 1.11111: 0.73
  normalized signal at concentration 3.33333: 0.73
[1]; sheet 2nd round, dose response
  IC50: > 10 µM
[1]; second series of dose-response columns
  normalized signal at concentration 10: 0.66
[1]; second series
  normalized signal at concentration 0.000508053: 0.85
  normalized signal at concentration 0.00152416: 0.90
  normalized signal at concentration 0.00457247: 0.80
  normalized signal at concentration 0.0137174: 0.89
  normalized signal at concentration 0.0411523: 0.77
  normalized signal at concentration 0.123457: 0.77
  normalized signal at concentration 0.37037: 0.95
  normalized signal at concentration 1.11111: 0.95
  normalized signal at concentration 3.33333: 0.97
[1]; [3]
  PbLuc_max_inhibition (%): 47%
HepG2-A16-CD81EGFP cells; sheet 2nd round
  IC50: > 10 µM
HepG2-A16-CD81EGFP cells; [3]
  Tox_max_inhibition (%): 6.47%

## CCOc1ccc(Nc2c3ccccc3nc3ccccc23)cc1 [MMV000304]
HepG2-A16-CD81EGFP cells
  HepG2 Tox% @ 50 uM rep1: 102%
[2]; [4]
  inhibition at 50 µM: 104%
[2]; [5]
  inhibition at 50 µM: 104%

## CCCCCn1c(=N)n(CC(O)COc2cccc(C)c2)c2ccccc21 (stereo not drawn) [MMV000444]
HepG2-A16-CD81EGFP cells
  HepG2 Tox% @ 50 uM rep1: 100%
[2]; [4]
  inhibition at 50 µM: 102%
[2]; [5]
  inhibition at 50 µM: 103%

## CCOc1cc2c(cc1OCC)C(c1cc(Cl)ccc1O)NCC2 (stereo not drawn) [MMV000478]
HepG2-A16-CD81EGFP cells
  HepG2 Tox% @ 50 uM rep1: 101%
[2]; [4]
  inhibition at 50 µM: 103%
[2]; [5]
  inhibition at 50 µM: 104%

## CCCCC(O)(c1ccc(Cl)cc1)C(CN1CCOCC1)c1ccc(Cl)cc1 (stereo not drawn) [MMV000619]
HepG2-A16-CD81EGFP cells
  HepG2 Tox% @ 50 uM rep1: 97%
[2]; [4]
  inhibition at 50 µM: 99%
[2]; [5]
  inhibition at 50 µM: 100%

## OC(CNCc1ccccc1)Cn1c2ccccc2c2ccccc21 (stereo not drawn) [MMV000839]
HepG2-A16-CD81EGFP cells
  HepG2 Tox% @ 50 uM rep1: 99%
[2]; [4]
  inhibition at 50 µM: 101%
[2]; [5]
  inhibition at 50 µM: 100%

## OCCNc1nc(Nc2ccc(Cl)c(Cl)c2)nc2ccccc12 [MMV001041]
HepG2-A16-CD81EGFP cells
  HepG2 Tox% @ 50 uM rep1: 98%
[2]; [4]
  inhibition at 50 µM: 99%
[2]; [5]
  inhibition at 50 µM: 101%

## CN(C)CCNc1cc(-c2ccccc2)nc2ccccc12 [MMV006704]
HepG2-A16-CD81EGFP cells
  HepG2 Tox% @ 50 uM rep1: 96%
[2]; [4]
  inhibition at 50 µM: 95%
[2]; [5]
  inhibition at 50 µM: 97%

## COc1ccc(Nc2cc(C)nc(NCc3ccccc3)n2)cc1 [MMV006825]
HepG2-A16-CD81EGFP cells
  HepG2 Tox% @ 50 uM rep1: 97%
[2]; [4]
  inhibition at 50 µM: 100%
[2]; [5]
  inhibition at 50 µM: 100%

## CCOC(=O)c1cnc2ccc(Cl)cc2c1NCCCN(C)C [MMV006882]
HepG2-A16-CD81EGFP cells
  HepG2 Tox% @ 50 uM rep1: 99%
[2]; [4]
  inhibition at 50 µM: 99%
[2]; [5]
  inhibition at 50 µM: 102%

## CCOc1ccc2nc(C)cc(Nc3ccc(N(C)C)cc3)c2c1 [MMV007020]
HepG2-A16-CD81EGFP cells
  HepG2 Tox% @ 50 uM rep1: 97%
[2]; [4]
  inhibition at 50 µM: 100%
[2]; [5]
  inhibition at 50 µM: 101%

## COc1nc(Nc2ccc(C(C)C)cc2)nc(OC)n1 [MMV007808]
HepG2-A16-CD81EGFP cells
  HepG2 Tox% @ 50 uM rep1: 94%
  HepG2 Tox% @ 50 uM rep2: 95%
[2]; [4]
  inhibition at 50 µM: 101%
[2]; [5]
  inhibition at 50 µM: 96%

## COc1ccc2nc(C)cc(Nc3cccc(O)c3)c2c1 [MMV008212]
HepG2-A16-CD81EGFP cells
  HepG2 Tox% @ 50 uM rep1: 99%
[2]; [4]
  inhibition at 50 µM: 99%
[2]; [5]
  inhibition at 50 µM: 102%

## O=C(CCc1ccccc1)c1ccccc1OCC(O)CN1CCCCC1 (stereo not drawn) [MMV009015]
HepG2-A16-CD81EGFP cells
  HepG2 Tox% @ 50 uM rep1: 97%
[2]; [4]
  inhibition at 50 µM: 99%
[2]; [5]
  inhibition at 50 µM: 100%

## O=C1c2ccc3c4c(ccc(c24)C(=O)N1CCCCO)C(=O)N(CCCCO)C3=O [MMV009085]
HepG2-A16-CD81EGFP cells
  HepG2 Tox% @ 50 uM rep1: 102%
[2]; [4]
  inhibition at 50 µM: 103%
[2]; [5]
  inhibition at 50 µM: 104%

## Oc1ccc2ccccc2c1CNc1nc2ccccc2[nH]1 [MMV011832]
HepG2-A16-CD81EGFP cells
  HepG2 Tox% @ 50 uM rep1: 100%
[2]; [4]
  inhibition at 50 µM: 99%
[2]; [5]
  inhibition at 50 µM: 101%

## COc1ccc(C(=O)Nc2ccc3nc(N4CCCCC4)cc(C)c3c2)cc1OC [MMV019758]
HepG2-A16-CD81EGFP cells
  HepG2 Tox% @ 50 uM rep1: 101%
  HepG2 Tox% @ 50 uM rep2: 101%
[2]; [4]
  inhibition at 50 µM: 104%
[2]; [5]
  inhibition at 50 µM: 104%

## CCn1c(CN2CCN(Cc3ccccc3)CC2)nc2cc(NC(=O)c3cccs3)ccc21 [MMV020439]
HepG2-A16-CD81EGFP cells
  HepG2 Tox% @ 50 uM rep1: 98%
  HepG2 Tox% @ 50 uM rep2: 99%
[2]; [4]
  inhibition at 50 µM: 99%
[2]; [5]
  inhibition at 50 µM: 102%

## CN(C)CCCNCc1ccc(-c2ccc(F)c(Cl)c2)o1 [MMV020505]
HepG2-A16-CD81EGFP cells
  HepG2 Tox% @ 50 uM rep1: 96%
[2]; [4]
  inhibition at 50 µM: 98%
[2]; [5]
  inhibition at 50 µM: 98%

## CCC(O)c1ccc(Br)cc1NC(=O)c1cccc(Cl)c1 (stereo not drawn) [MMV020654]
HepG2-A16-CD81EGFP cells
  HepG2 Tox% @ 50 uM rep1: 101%
  HepG2 Tox% @ 50 uM rep2: 101%
[2]; [4]
  inhibition at 50 µM: 104%
[2]; [5]
  inhibition at 50 µM: 106%

## COc1cc(-c2nc(-c3ccccc3)c(-c3ccccc3)[nH]2)cc(OC)c1O [MMV020750]
HepG2-A16-CD81EGFP cells
  HepG2 Tox% @ 50 uM rep1: 102%
[2]; [4]
  inhibition at 50 µM: 103%
[2]; [5]
  inhibition at 50 µM: 104%

## COc1ccc(C=C2SC(Nc3ccc(F)cc3)=NC2=O)c(OC)c1 [MMV084434]
HepG2-A16-CD81EGFP cells
  HepG2 Tox% @ 50 uM rep1: 100%
[2]; [4]
  inhibition at 50 µM: 103%
[2]; [5]
  inhibition at 50 µM: 104%

## OC(CNCC1CCCO1)Cn1c2ccc(Cl)cc2c2cc(Cl)ccc21 (stereo not drawn) [MMV396736]
HepG2-A16-CD81EGFP cells
  HepG2 Tox% @ 50 uM rep1: 98%
  HepG2 Tox% @ 50 uM rep2: 99%
[2]; [4]
  inhibition at 50 µM: 101%
[2]; [5]
  inhibition at 50 µM: 101%

## CC(C)CNC(=O)c1c(N)n(CCc2ccccc2F)c2nc3ccccc3nc12 [MMV396744]
HepG2-A16-CD81EGFP cells
  HepG2 Tox% @ 50 uM rep1: 99%
  HepG2 Tox% @ 50 uM rep2: 99%
[2]; [4]
  inhibition at 50 µM: 101%
[2]; [5]
  inhibition at 50 µM: 103%
